Results from PubChem BioAssay (NCI).
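Five concentrations, 48 hours, 96-well plates. Abbreviation: GI50, concentration required for 50% inhibition of growth. TGI marks complete inhibition of growth.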

Assays:
Assay in all cases: inhibition of tumour cell growth, NCI panel, 48 h
[1] = system: RPMI-8226 leukemia
[2] = system: A498 renal
[3] = system: CAKI-1 renal
[4] = system: SK-OV-3 ovarian
[5] = system: HOP-92 NSCLC
[6] = system: HS 578T breast
[7] = system: U251 CNS
[8] = system: HCT-15 colon
[9] = system: MDA-MB-435
[10] = system: HCC-2998 colon
[11] = system: NCI-H460 lung
[12] = system: IGROV1 ovarian
[13] = system: NCI-H522 lung
[14] = system: MCF7 breast
[15] = system: OVCAR-3 ovarian
[16] = system: SF-539 CNS
[17] = system: MALME-3M melanoma
[18] = system: TK-10 renal
[19] = system: NCI/ADR-RES ovarian
[20] = system: 786-0 renal
[21] = system: SF-268 CNS
[22] = system: UACC-257 melanoma
[23] = system: SF-295 CNS
[24] = system: OVCAR-5 ovarian
[25] = system: SK-MEL-5 melanoma
[26] = system: HOP-62 NSCLC
[27] = system: COLO 205 colon
[28] = system: ACHN renal
[29] = system: UACC-62 melanoma
[30] = system: OVCAR-8 ovarian
[31] = system: SK-MEL-28 melanoma
[32] = system: UO-31 renal
[33] = system: MDA-MB-231 breast
[34] = system: K-562 leukemia
[35] = system: A549 NSCLC
[36] = system: KM12 colon
[37] = system: M14 melanoma
[38] = system: SR leukemia
[39] = system: SK-MEL-2 melanoma
[40] = system: SW-620 colon
[41] = system: NCI-H23 lung
[42] = system: SNB-19 CNS
[43] = system: MOLT-4 leukemia
[44] = system: HL-60(TB) leukemia
[45] = system: LOX IMVI melanoma
[46] = system: PC-3 prostate
[47] = system: OVCAR-4 ovarian
[48] = system: HT29 colon
[49] = system: EKVX NSCLC
[50] = system: NCI-H226 lung

Compound: C=C(C)[C@@H]1CCC[C@]2(COS(=O)(=O)c3ccc(C)cc3)CC[C@]3(C)[C@@H](CC[C@@H]4[C@@]5(C)CCCNC(C)(C)[C@@H]5CC[C@]43C)[C@@H]12
- GI50 [1]: 1860 nM
- TGI [1]: 4.54 µM
- GI50 [2]: 1630 nM
- TGI [2]: 3.14 µM
- GI50 [3]: 1740 nM
- TGI [3]: 3.15 µM
- GI50 [4]: 1870 nM
- TGI [4]: 3.3 µM

Compound: CCOC(=O)N1CCC2(CC1)C[C@](C)(C(C)=O)C(C)O2 (stereo partly drawn)
- TGI [5]: > 100 µM
- TGI [6]: > 100 µM
- TGI [7]: > 100 µM
- TGI [8]: > 100 µM
- TGI [9]: > 100 µM
- TGI [1]: > 100 µM
- TGI [10]: > 100 µM
- TGI [11]: > 100 µM
- TGI [12]: > 100 µM
- TGI [13]: > 100 µM
- TGI [14]: > 100 µM
- TGI [15]: > 100 µM
- TGI [16]: > 100 µM
- TGI [17]: > 100 µM
- TGI [18]: > 100 µM
- TGI [19]: > 100 µM
- TGI [20]: > 100 µM
- TGI [21]: > 100 µM
- TGI [22]: > 100 µM
- TGI [23]: > 100 µM
- TGI [2]: > 100 µM
- TGI [24]: > 100 µM
- TGI [25]: > 100 µM
- TGI [26]: > 100 µM
- TGI [27]: > 100 µM
- TGI [28]: > 100 µM
- TGI [29]: > 100 µM
- TGI [30]: > 100 µM
- TGI [31]: > 100 µM
- TGI [32]: > 100 µM
- TGI [33]: > 100 µM
- TGI [34]: > 100 µM
- TGI [35]: > 100 µM
- TGI [36]: > 100 µM
- TGI [37]: > 100 µM
- TGI [38]: > 100 µM
- TGI [39]: > 100 µM
- TGI [40]: > 100 µM
- TGI [41]: > 100 µM
- TGI [42]: > 100 µM
- TGI [43]: > 100 µM
- TGI [44]: 17.8 µM
- TGI [3]: > 100 µM
- TGI [45]: > 100 µM
- TGI [46]: > 100 µM
- TGI [47]: > 100 µM
- TGI [48]: > 100 µM
- TGI [49]: > 100 µM
- TGI [4]: > 100 µM
- TGI [50]: > 100 µM
